As usually defined, the IC50 is the point on the concentration scale where inhibition reaches its midpoint.

Molecules are shown by their SMILES.

18 compounds from patent publication US8426420B2, “Heterocyclic pyrazole-carboxamidesas P2Y12 antagonists” (Sanofi, priority 2007, dated 2013) can be followed below.

The subject of assay [1] is human platelet rich plasma. The assay is described as follows: Inhibition of human platelet aggregation, 96-well assay. Type of assay: cell-based. The note with it: Homo sapiens, Platelet, 20 min. Summed up: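 ADP-induced aggregation read as 650 nm absorbance every minute for 20 min at 37 °C, with shaking between reads. PRP (~3×E8 platelets/ml, diluted with PPP, ACD-A blood from healthy volunteers) was exposed to compound for 5 min before adding a 40 μM ADP stock (15 μl into 150 μl).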

A further assay addresses human P2Y12 receptor (Homo sapiens, UniProt Q9H244). The assay is described as follows: Human P2Y12 recombinant cell membrane binding assay with 33P 2MeS-ADP. The following applies: competition against 33P 2MeS-ADP, membranes of CHO cells with recombinant human P2Y12 receptor. The procedure, abridged:
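Competition binding against radiolabeled 2MeS-ADP (1.61 nM as added) on membranes from recombinant human P2Y12 CHO cells, 20 min RT after 15 min compound preincubation, pH 7.4. Filtration then scintillation counting; compounds tested in triplicate from 10 μM final, five-fold dilutions, curve fit with plate-defined min/max.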

Chain of human P2Y12 receptor (Q9H244 whole entry): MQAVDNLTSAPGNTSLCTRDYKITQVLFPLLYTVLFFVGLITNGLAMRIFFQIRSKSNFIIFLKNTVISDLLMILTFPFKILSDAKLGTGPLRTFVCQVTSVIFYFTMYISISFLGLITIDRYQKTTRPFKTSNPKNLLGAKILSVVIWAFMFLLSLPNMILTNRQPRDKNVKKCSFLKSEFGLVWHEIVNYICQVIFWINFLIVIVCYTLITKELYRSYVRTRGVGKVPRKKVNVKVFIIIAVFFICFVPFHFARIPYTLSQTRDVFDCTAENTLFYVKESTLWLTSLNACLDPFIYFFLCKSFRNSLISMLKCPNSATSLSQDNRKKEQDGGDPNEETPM

Regarding `O=C(O)CC[C@H](NC(=O)c1cc(OCC(=O)N2CCC[C@H]2C(=O)NC2CCC2)n(-c2ccccc2)n1)C(=O)N1CCN(C(=O)OCc2ccccc2)CC1` [Example 159, 4-[(S)-4-Carboxy-2-({5-[2-((S)-2-cyclobutylcarbamoyl-pyrrolidin-1-yl)-2-oxo-ethoxy]-1-phenyl-1H-pyrazole-3-carbonyl}-amino)-butyryl]-piperazine-1-carboxylic acid benzyl ester], the IC50 in assay [1] stood at 120 nM; on human P2Y12 receptor, 15 nM.
Taken in the same sequence, the figures for `O=C(O)CC[C@H](NC(=O)c1cc(OCC(=O)N2CCC[C@H]2C(=O)NCC2CC2)n(-c2ccccc2)n1)C(=O)N1CCN(C(=O)OCc2ccccc2)CC1` [Example 161, 4-[(S)-4-Carboxy-2-({5-[2-((S)-2-(cyclopropylmethyl-carbamoyl)-pyrrolidin-1-yl)-2-oxo-ethoxy]-1-phenyl-1H-pyrazole-3-carbonyl}-amino)-butyryl]-piperazine-1-carboxylic acid benzyl ester] were 240 nM and 33 nM.
Taken in the same sequence, the figures for `O=C(O)CC[C@H](NC(=O)c1cc(OCC(=O)N2CCC[C@H]2C(=O)NC2CCC2)n(-c2ccccc2)n1)C(=O)N1CCN(C(=O)OC2CCC2)CC1` [Example 163, 4-[(S)-4-Carboxy-2-({5-[2-((S)-2-cyclobutylcarbamoyl-pyrrolidin-1-yl)-2-oxo-ethoxy]-1-phenyl-1H-pyrazole-3-carbonyl}-amino)-butyryl]-piperazine-1-carboxylic acid cyclobutyl ester] were 10 nM and 13 nM.
In the same order, the values of `CCOC(=O)N1CCN(C(=O)[C@H](CCC(=O)O)NC(=O)c2cc(OCC(=O)N3CC(F)(F)C[C@H]3C(=O)NC3CCC3)n(-c3ccccc3)n2)CC1` [Example 164, 4-[(S)-4-Carboxy-2-({5-[2-((S)-2-cyclobutylcarbamoyl-4,4-difluoro-pyrrolidin-1-yl)-2-oxo-ethoxy]-1-phenyl-1H-pyrazole-3-carbonyl}-amino)-butyryl]-piperazine-1-carboxylic acid ethyl ester] are 40 nM and 81 nM.
Regarding `CCOC(=O)N1CCN(C(=O)[C@H](CCNC(=O)C2CC2(F)F)NC(=O)c2cc(OCC(=O)N3CCC[C@H]3C(=O)NC3CCC3)n(-c3ccccc3)n2)CC1` (stereo partly drawn) [Example 187, 4-{(S)-2-({5-[2-((S)-2-Cyclobutylcarbamoyl-pyrrolidin-1-yl)-2-oxo-ethoxy]-1-phenyl-1H-pyrazole-3-carbonyl}-amino)-4-[(2,2-difluoro-cyclopropanecarbonyl)-amino]-butyryl}-piperazine-1-carboxylic acid ethyl ester], the concentration for half-maximal inhibition (IC50) in assay [1] is 440 nM; at human P2Y12 receptor it was 98 nM.
Regarding `CCOC(=O)N1CCN(C(=O)[C@H](CCNS(=O)(=O)C(F)(F)F)NC(=O)c2cc(OCC(=O)N3CCC[C@H]3C(=O)NC3CCC3)n(-c3ccccc3)n2)CC1` [Example 188, 4-[(S)-2-({5-[2-((S)-2-Cyclobutylcarbamoyl-pyrrolidin-1-yl)-2-oxo-ethoxy]-1-phenyl-1H-pyrazole-3-carbonyl}-amino)-4-trifluoromethanesulfonylamino-butyryl]-piperazine-1-carboxylic acid ethyl ester], the IC50 worked out at 490 nM in assay [1] and 10 nM at human P2Y12 receptor.
With `COC(=O)CC[C@H](NC(=O)c1cc(OCC(=O)N2CCC[C@H]2C(=O)NC2CCC2)n(-c2ccccc2)n1)C(=O)N1CCN(C(=O)OC2CCC2)CC1` [Example 189, 4-[(S)-2-({5-[2-((S)-2-Cyclobutylcarbamoyl-pyrrolidin-1-yl)-2-oxo-ethoxy]-1-phenyl-1H-pyrazole-3-carbonyl}-amino)-4-methoxycarbonyl-butyryl]-piperazine-1-carboxylic acid cyclobutyl ester], the half-inhibitory concentration (IC50) in assay [1] is 350 nM; at human P2Y12 receptor it was 35 nM.
For the compound `CCCCOC(=O)N1CCN(C(=O)[C@H](CCC(=O)OC)NC(=O)c2cc(OCC(=O)N3CCC[C@H]3C(=O)NC3CCC3)n(-c3ccccc3)n2)CC1` [Example 191, 4-[(S)-2-({5-[2-((S)-2-Cyclobutylcarbamoyl-pyrrolidin-1-yl)-2-oxo-ethoxy]-1-phenyl-1H-pyrazole-3-carbonyl}-amino)-4-methoxycarbonyl-butyryl]-piperazine-1-carboxylic acid butyl ester], the half-maximal inhibitory concentration (IC50) in assay [1] was found to be 380 nM; at human P2Y12 receptor, 6 nM.
Taken in the same sequence, the figures for `O=C(NCC(=O)N1CCN(C(=O)OC2CCC2)CC1)c1cc(OCC(=O)N2CCC[C@H]2C(=O)NC2CCC2)n(-c2ccccc2)n1` [Example 192, 4-[2-({5-[2-((S)-2-Cyclobutylcarbamoyl-pyrrolidin-1-yl)-2-oxo-ethoxy]-1-phenyl-1H-pyrazole-3-carbonyl}-amino)-acetyl]-piperazine-1-carboxylic acid cyclobutyl ester] were 190 nM and 131 nM.
Take `CCOCCOC(=O)CC[C@H](NC(=O)c1cc(OCC(=O)N2CCC[C@H]2C(=O)NC2CCC2)n(-c2ccccc2)n1)C(=O)N1CCN(C(=O)OCC)CC1` [Example 198, 4-[(S)-2-({5-[2-((S)-2-Cyclobutylcarbamoyl-pyrrolidin-1-yl)-2-oxo-ethoxy]-1-phenyl-1H-pyrazole-3-carbonyl}-amino)-4-(2-ethoxy-ethoxycarbonyl)-butyryl]-piperazine-1-carboxylic acid ethyl ester]: the IC50 in assay [1] is 720 nM; on human P2Y12 receptor it was 116 nM.
In the same order, the values of `CCOC(=O)N1CCN(C(=O)[C@H](CCC(=O)OCC2CCCO2)NC(=O)c2cc(OCC(=O)N3CCC[C@H]3C(=O)NC3CCC3)n(-c3ccccc3)n2)CC1` (stereo partly drawn) [Example 199, 4-[(S)-2-({5-[2-((S)-2-Cyclobutylcarbamoyl-pyrrolidin-1-yl)-2-oxo-ethoxy]-1-phenyl-1H-pyrazole-3-carbonyl}-amino)-4-(tetrahydro-furan-2-ylmethoxycarbonyl)-butyryl]-piperazine-1-carboxylic acid ethyl ester] are 920 nM and 139 nM.
Taken in the same sequence, the figures for `CCCOC(=O)N1CCN(C(=O)[C@@H](C)NC(=O)c2cc(OCC(=O)N3CCC[C@H]3C(=O)NC3CCC3)n(-c3ccccc3)n2)CC1` [Example 206, 4-[(R)-2-({5-[2-((S)-2-Cyclobutylcarbamoyl-pyrrolidin-1-yl)-2-oxo-ethoxy]-1-phenyl-1H-pyrazole-3-carbonyl}-amino)-propionyl]-piperazine-1-carboxylic acid propyl ester] were 410 nM and 187 nM.
Taken in the same sequence, the figures for `CCCOC(=O)N1CCN(C(=O)[C@H](C)NC(=O)c2cc(OCC(=O)N3CCC[C@H]3C(=O)NC3CCC3)n(-c3ccccc3)n2)CC1` [Example 208, 4-[(S)-2-({5-[2-((S)-2-Cyclobutylcarbamoyl-pyrrolidin-1-yl)-2-oxo-ethoxy]-1-phenyl-1H-pyrazole-3-carbonyl}-amino)-propionyl]-piperazine-1-carboxylic acid propyl ester] were 390 nM and 126 nM.
As to `CCCCOC(=O)N1CCN(C(=O)[C@H](CCCOC(C)=O)NC(=O)c2cc(OCC(=O)N3CCC[C@H]3C(=O)NC3CCC3)n(-c3ccccc3)n2)CC1` [Example 211, 4-[(S)-5-Acetoxy-2-({5-[2-((S)-2-cyclobutylcarbamoyl-pyrrolidin-1-yl)-2-oxo-ethoxy]-1-phenyl-1H-pyrazole-3-carbonyl}-amino)-pentanoyl]-piperazine-1-carboxylic acid butyl ester], the 50% inhibitory concentration (IC50) is 280 nM in assay [1] and 20 nM on human P2Y12 receptor.
As for `CCCCOC(=O)N1CCN(C(=O)[C@H](CCCCO)NC(=O)c2cc(OCC(=O)N3CCC[C@H]3C(=O)NC3CCC3)n(-c3ccccc3)n2)CC1` [Example 213, 4-[(S)-2-({5-[2-((S)-2-Cyclobutylcarbamoyl-pyrrolidin-1-yl)-2-oxo-ethoxy]-1-phenyl-1H-pyrazole-3-carbonyl}-amino)-6-hydroxy-hexanoyl]-piperazine-1-carboxylic acid butyl ester], the values for the concentration for half-maximal inhibition (IC50) (in assay [1]; on human P2Y12 receptor) were 330 nM and 22 nM, respectively.
Taken in the same sequence, the figures for `CCCCOC(=O)N1CCN(C(=O)[C@H](CCC)NC(=O)c2cc(OCC(=O)N3CCC[C@H]3C(=O)NC3CCC3)n(-c3ccccc3)n2)CC1` [Example 221, 4-[(S)-2-({5-[2-((S)-2-Cyclobutylcarbamoyl-pyrrolidin-1-yl)-2-oxo-ethoxy]-1-phenyl-1H-pyrazole-3-carbonyl}-amino)-pentanoyl]-piperazine-1-carboxylic acid butyl ester] were 260 nM and 34 nM.
In the same order, the values of `CCCCOC(=O)N1CCN(C(=O)[C@@H](NC(=O)c2cc(OCC(=O)N3CCC[C@H]3C(=O)NC3CCC3)n(-c3ccccc3)n2)C(C)C)CC1` [Example 222, 4-[(S)-2-({5-[2-((S)-2-Cyclobutylcarbamoyl-pyrrolidin-1-yl)-2-oxo-ethoxy]-1-phenyl-1H-pyrazole-3-carbonyl}-amino)-3-methyl-butyryl]-piperazine-1-carboxylic acid butyl ester] are 260 nM and 28 nM.
In the same order, the values of `CCCCOC(=O)N1CCN(C(=O)[C@H](COC)NC(=O)c2cc(OCC(=O)N3CCC[C@H]3C(=O)NC3CCC3)n(-c3ccccc3)n2)CC1` [Example 232, 4-[(S)-2-({5-[2-((S)-2-Cyclobutylcarbamoyl-pyrrolidin-1-yl)-2-oxo-ethoxy]-1-phenyl-1H-pyrazole-3-carbonyl}-amino)-3-methoxy-propionyl]-piperazine-1-carboxylic acid butyl ester] are 410 nM and 16 nM.
